Tests used:
[1] = system: SW620 human colon cancer xenografts; test: In vivo target modulation studies (P-STAT1 S727 in tumors); set-up: species or system mice; conditions: single oral dose 5 mg/kg; tumors sampled 1, 4, 8 and 24 h
Procedure: The in vivo potency of the compounds was measured determining target modulation in human colon xenografts. Eight weeks old female athymic nude mice (Harlan Sprague Dawley Inc) are subcutaneously grafted with 10*10^6 SW620 human colon cancer cells. When the tumors reach a size of 200-400 mm^3 the mice are dosed orally with 5 mg/kg of Example 43 or vehicle. Tumors are excised 1, 4, 8 and 24 h after administration (n=3 mice per time point) and are processed for western blot and for HPLC/MS/MS in order to determine the concentration for Example 43 in the tumor. […] The supernatants are removed and protein concentration is determined by Bradford method (Bio-Rad Protein Assay). […] 30-60 μg of total proteins extracts are analyzed by western blot for STAT1P/STAT1 modulation as has been described in the cellular CDK8 inhibition assay. […] Specific solid phase extraction methods as well as LC-MS/MS analysis and quantification methods were developed, reaching LLOQs of 1 ng/ml. […]

[2] = system: MDAMB231; test: Combination assay, MDAMB231; format: cell-based
Procedure: (§1) The combination index (CI) of combinations of certain example compounds and various chemotherapeutic agents in the CellTitetI-Glo® in vitro cell proliferation assays may be tested. A combination index score is calculated by the Chou and Talalay method (CalcuSyn software, Biosoft). The strength of synergy is scored using the ranking system Chou and Talalay: CI less than 0.8 indicates synergy, CI between 0.8 and 1.2 indicates additivity and CI greater than 1.2 indicates antagonism.
(§2) The EC50 values of representative combinations are also calculated. The individually measured EC50 values of the chemotherapeutic agent and the example compounds are compared to the EC50 value of the combination. The cell lines are characterised by tumor type. Combination assays are performed as described in: “Pim 1 kinase inhibitor ETP-45299 suppresses cellular proliferation and synergizes with PI3K inhibition”. Blanco-Aparicio, Carmen; Collazo, Ana Maria Garcia; Oyarzabal, Julen; Leal, Juan F.; Albaran, Maria Isabel; Lima, Francisco Ramos; Pequeno, Belen; Ajenjo, Nuria; Becerra, Mercedes; Alfonso, Patricia; Reymundo, Maria Isabel; Palacios, Irene; Mateos, Genoveva; Quinones, Helena; Corrionero, Ana; Carnero, Amancio; Pevarello, Paolo; Lopez, Ana Rodriguez; Fominaya, Jesus; Pastor, Joaquin; Bischoff, James R. Cancer Letters (Shannon, Ireland) 2011, 300(2), 145-153

[3] = system: A549; test: Combination assay, A549; format: cell-based
Procedure: as §1, §2

[4] = system: SKMEL19; test: Combination assay, SKMEL19; format: cell-based
Procedure: as §1, §2

[5] = system: BXPC-3; test: Combination assay, BXPC-3; format: cell-based
Procedure: as §1, §2

[6] = MDAMB231, combination with Elesclomol
[7] = A549, combination with Elesclomol
[8] = SKMEL19, combination with Crizotinib
[9] = SKMEL19, combination with Elesclomol
[10] = BXPC-3, combination with Crizotinib
[11] = BXPC-3, combination with Elesclomol

GI50 ([2]; Homo sapiens, MDA-MB-231, MDAMB231, example compound alone, read-out: CDK8 inh GI50): 5 µM
GI50 ([3]; Homo sapiens, A549, example compound alone, read-out: CDK8 inh GI50): 5 µM
GI50 ([4]; Homo sapiens, SK-MEL19, SKMEL19, example compound alone, read-out: CDK8 inh GI50): 1.25 µM
GI50 ([5]; Homo sapiens, BXPC-3, example compound alone, read-out: CDK8 inh GI50): 5 µM
Compound: CCn1c(C(N)=O)cc2c1-c1ccncc1OC2(C)C [Example 43]
target modulation in vivo, P-STAT1 (S727) [1]: Clear target modulation is observed at 1 and 4 h
Combination index (CI) [2, 6]: 0.59
Synergy [2, 6]: ++ (0.3 < CI < 0.7 (++))
Combination index (CI) [3, 7]: 0.63
Synergy [3, 7]: ++ (0.3 < CI < 0.7 (++))
Combination index (CI) [4, 8]: 0.55
Synergy [4, 8]: ++ (0.3 < CI < 0.7 (++))
Combination index (CI) [4, 9]: 0.49
Synergy [4, 9]: ++ (0.3 < CI < 0.7 (++))
Combination index (CI) [5, 10]: 0.72
Synergy [5, 10]: ++ (0.3 < CI < 0.7 (++))
Combination index (CI) [5, 11]: 0.25
Synergy [5, 11]: ++ (0.3 < CI < 0.7 (++))
